Consider 16 compounds from patent publication US11054425B2, “System and method for identification and characterization of transglutaminase species” (Roche Sequencing Solutions, Inc., priority 2014, dated 2021).

What all share (assay type): biochemical, Kutzneria albida
Test [1] has as its system KalbTG. In words: GLDH-coupled assay in solution (NADH oxidation). The settings on record: NADH oxidation at 340 nm, 37° C. As for the experimental part:
KalbTG activity was obtained by measuring incorporation of a biotinylated amine-donor on the peptide array and rates of NADH oxidation at 340 nm and 37° C. in the presence of amine-donor substrate (500 μM) in the GLDH-coupled assay using 100 μM each of nine of the best-performing array-selected glutamine-containing substrates and of two S. mobaraensis MTG glutamine-containing substrates. […] Testing of the top sequences in Table 1 confirmed YRYRQ (SEQ ID NO: 1) and RYRQR (SEQ ID NO 14) as the top performing 5-mer substrates, with turnover rates of 3.52±0.08 pmol NADH s^−1 and 3.60±0.12 pmol NADH s^−1, respectively.
With reference to Table 2, KalbTG activity was obtained by measuring incorporation of a biotinylated glutamine-donor and rates of NADH oxidation at 340 nm and 37° C. in the presence of glutamine-donor substrate (200 μM) in the GLDH-coupled assay using 100 μM each of i) six of the top-performing array-selected lysine substrates, ii) cadaverine, and iii) preferred MTG lysine substrate ARSKL (SEQ ID NO:30). […] This is a small but significant increase over cadaverine (3.51±0.12 pmol s^−1) or ARSKL (SEQ ID NO:30) (3.87±0.31 pmol s^−1), a peptide previously established as a preferred MTG lysine donor motif on the peptide array. Additional details on the S. mobaraensis MTG substrate peptide ARSKL (SEQ ID NO:30) can be found in U.S. Provisional Patent Application Ser. No. 62/094,495 to Albert et al. filed on Dec. 19, 2014.
For the GLDH coupled assay, to determine whether the KalbTG peptides selected in the array assay were also preferred substrates in a solution reaction and to quantify cross-reactivity of KalbTG and S. mobaraensis MTG with various substrates, a continuous glutamate dehydrogenase (GLDH)-coupled assay for S. mobaraensis MTG activity (see Oteng-Pabi, et al., 2013. Analytical biochemistry 441(2): 169-173) was applied.
For glutamine substrate evaluation, the assay was performed in a transparent 96-well microtiter plate in the presence of 500 μM α-ketoglutarate, 500 μM or 1 mM cadaverine as Amine donor substituting for a lysine-containing peptide, 2 U ml^−1 of glutamate dehydrogenase (GLDH), 500 μM NADH and glutamine-containing substrate peptide (Z-[[…] (SEQ ID NO:77)], Z-[[…] (SEQ ID NO:78)], Z-[[…] (SEQ ID NO:75)], Z-[[…] (SEQ ID NO:79)], Z-[[…] (SEQ ID NO:80)], Z-[[…] (SEQ ID NO:81)], Z-[[…] (SEQ ID NO:82)], Z-[[…] (SEQ ID NO:83)], Z-[[…] (SEQ ID NO:84)], Z-[[…] (SEQ ID NO:85)], Z-[[…] (SEQ ID NO:86)], Z-[[…] (SEQ ID NO:76)] or Z-[[…] (SEQ ID NO:87)]) concentrations ranging between 0 and 1 mM in 200 mM MOPS, 1 mM EDTA pH 7.2 (total volume per well 200 μl).
For amine substrate evaluation, assay conditions were the same as for glutamine substrate evaluation with the exception that 100 μM each of amine substrate (Z-[[…] (SEQ ID NO:88)], Z-[[…] (SEQ ID NO:89)], Z-[[…] (SEQ ID NO:90)], Z-[[…] (SEQ ID NO:91)], Z-[[…] (SEQ ID NO:92)], Z-[[…] (SEQ ID NO:93)], Z-[[…] (SEQ ID NO:94)], Z-[[…] (SEQ ID NO:95)] or cadaverine) and 200 μM glutamine donor (Z-[[…] (SEQ ID NO:75)] or Z-[[…] (SEQ ID NO:76)]) were used.
Reactions were started by the addition of 5 μg ml^−1 of S. mobaraensis MTG or KalbTG and the oxidation of NADH was continuously recorded at 340 nm for 60 minutes using a Biotek Synergy H4 microplate reader, temperature controlled at 37° C., with short shaking intervals before each measurement. After a short lag phase where the GLDH was saturated by transglutaminase-mediated release of ammonia, linear rates of absorbance versus time corresponding to transglutaminase turnover were observed and subjected to Michaelis-Menten kinetic analysis. […]

The test system of test [2] is KalbTG. In words: 5-mer peptide array, lysine-substrate screening with biotinylated glutamine donor. The settings on record: incorporation of biotinylated glutamine-donor on 5-mer peptide array. The text has this: A second round of maturation on the peptide array yielded […] (SEQ ID NO:24) as the top performing 9-mer substrate, which was then resynthesized as biotinylated peptide to act as acyl donor for the discovery of optimized lysine recognition motifs back on the 5-mer peptide array (FIG. 4B). Again, six of the best lysine-containing peptides were resynthesized and tested in the KalbTG in-solution activity assay using a peptide containing the optimized glutamine recognition sequence YRYRQ (SEQ ID NO:1) as an acyl donor (Table 2). It will be appreciated that calculation of an array signal for cadaverine was not applicable due to omission of cadaverine from the array.
(§1) For construction of the peptide array, a library of 1,360,732 unique 5-mer peptides was designed by using all combinations of 18 natural amino acids excluding cysteine and methionine, as well as any dimer or a longer repeat of the same amino acid, and any peptide containing a dipeptide selected from HR, RH, HK, KH, RK, KR, HP, and PQ sequences. The library was synthesized in duplicate on the same array by using maskless light-directed peptide array synthesis. Each 5-mer peptide was flanked on both the N-terminus and C-terminus by 3 amino acid-long linkers synthesized by using mixture of glycine and serine having a 3:1 ratio.
In order to test KalbTG specificity for lysine substrates, chemically synthesized Z-[[…] (SEQ ID NO:31)]-PEG-Biotin peptide—which includes the sequence […] (SEQ ID NO:31)—was used as a glutamine-containing substrate to biotinylate lysine-containing peptides. Array biotinylation was done as described above with 0.1 ng μl^−1 KalbTG, 0.8 μM peptide at 37° C. for 15 minutes. Note that the a “Z—” in front of a peptide or other like construct is used herein to represent a carboxybenzyl group unless stated otherwise.
Target sequence in this assay (as listed by the source): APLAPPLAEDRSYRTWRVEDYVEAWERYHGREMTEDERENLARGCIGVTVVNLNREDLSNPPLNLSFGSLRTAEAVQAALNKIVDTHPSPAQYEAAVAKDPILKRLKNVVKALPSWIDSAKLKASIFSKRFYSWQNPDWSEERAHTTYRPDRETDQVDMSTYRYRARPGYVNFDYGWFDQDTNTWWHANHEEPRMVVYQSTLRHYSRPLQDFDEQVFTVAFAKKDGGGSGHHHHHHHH

The subject of test [3] is KalbTG. In words: 5-mer peptide array, glutamine-substrate screening with biotinylated amine donor. The settings on record: incorporation of biotinylated amine-donor on 5-mer peptide array. As for the experimental part: To identify potential acyl-donor and amine-donor substrates of the K. albida transglutaminase, high-throughput screening on 5-mer peptide arrays was performed (FIGS. 4A and 4B). An activity of at least 1.65 U/mg for both the SlyD-fused and the mature KalbTG enzymes was confirmed by commercial assay (Zedira MTG-ANiTA-KIT; compared to 4.3 U mg^−1 by the MTG supplied with the kit and a 0.07 U/mg blank value with BSA). The assay used β-casein as a cross-linking substrate and detected deamidation by a glutamate dehydrogenase dependent oxidation of NADPH. Specific recognition motifs were identified by assaying KalbTG with peptide arrays prepared by maskless array synthesis (U.S. Pat. Pub. No 2015/0185216 to Albert et al. filed on 19 Dec. 2014). The efficiency of the transamidation reaction between 1.4 million unique 5-mer peptides and a biotinylated amine donor was quantified on two arrays in parallel and the sequences of the peptides with the highest turnovers were determined (FIG. 4A). The nine best peptides were resynthesized and tested for KalbTG activity in a standalone GLDH-coupled assay. Note that the array signal for the sequence MLAQG (SEQ ID NO:13) is marked not applicable (n. a.) as this sequence was not included on the array. Similarly, measurement of a background signal was only applicable to experiments performed on the array.
as §1
Target sequence in this assay (as listed by the source): as above
To test KalbTG specificity for glutamine-containing substrate, N-(biotinyl)cadaverine was used as a substitute for a lysine substrate to biotinylate glutamine-peptides on a peptide array. KalbTG labeling reaction was performed in 1200 μL 100 mM Tris-HCl pH 8, 1 mM DTT, 50 μM N-(biotinyl)cadaverine, 0.2 ng μl^−1 KalbTG in SecureSeal™ chamber (Grace Bio-Labs) at 37° C. for 45 minutes. After incubation the chamber was removed and the array was washed in 20 mM Tris-HCl, pH7.8, 0.2 M NaCl, 1% SDS for 1 minute followed by a 1 minute wash in 20 mM Tris-HCl. Biotin linked to the array was stained with 0.3 μg ml^−1 Cy5-streptavidin in 10 mM Tris-HCl, pH7.4, 1% alkali-soluble casein, 0.05% TWEEN-20 non-ionic detergent at room temperature for 1 hour. Cy5 fluorescence intensity was measured with a fluorescence scanner at a resolution of 2 μm and a wavelength of 635 nm.

[4] abbreviates: 100 μM amine substrate, 200 μM glutamine-donor substrate.
Setting [5] is: 100 μM glutamine-containing substrate, 500 μM amine-donor substrate.

No end group written: not given here. *: point of attachment. Cbz = O=C(OCc1ccccc1)*

As for `NCCCCCN` [Cadaverine, reference compound], the “Reaction rate in solution” value with KalbTG [1] (setting [4]) came out at 3.51 ± 0.12 pmol/s; with KalbTG [1] (100 μM amine substrate, 200 μM glutamine-donor substrate, listed as cadaverine), 3.51 ± 0.12 pmol/s.

As to “ARSKL (Cbz-ARSKL) [preferred MTG lysine substrate, reference compound]”, the “Array signal (log2)” value in the test on KalbTG [2] came to 12.0 log2. For the same compound, in the test with KalbTG [1] (setting [4]), the “Reaction rate in solution” value turned out to be 3.87 ± 0.31 pmol/s.

Take AYRTK (Cbz-AYRTK) [KalbTG lysine 5-mer]: the “Array signal (log2)” value in the test with KalbTG [2] was 12.57 log2. Further, the “Reaction rate in solution” value with KalbTG [1] (setting [4]) was found to be 3.65 ± 0.17 pmol/s.

With “FRQRG (Cbz-FRQRG) [KalbTG glutamine-donor 5-mer]”, the “Array signal (log2)” value with KalbTG [3] came out at 8.82 log2. Further, the “Reaction rate in solution” value in the test on KalbTG [1] (setting [5]) was 2.11 ± 0.13 pmol/s.

Regarding “FRQRQ (Cbz-FRQRQ) [KalbTG glutamine-donor 5-mer]”, the “Array signal (log2)” value with KalbTG [3] worked out at 8.93 log2. In addition, in the test on KalbTG [1] (setting [5]), the “Reaction rate in solution” value is listed as 3.07 ± 0.17 pmol/s.

Consider “QRQRQ (Cbz-QRQRQ) [KalbTG glutamine-donor 5-mer]”, for which the “Array signal (log2)” value with KalbTG [3] is recorded as 8.77 log2. For the same compound, the “Reaction rate in solution” value with KalbTG [1] (setting [5]) is 2.98 ± 0.01 pmol/s.

Regarding “QYRQR (Cbz-QYRQR) [KalbTG glutamine-donor 5-mer]”, in the test on KalbTG [3], the “Array signal (log2)” value is listed as 8.70 log2. The “Reaction rate in solution” value in the test on KalbTG [1] (setting [5]) was 1.92 ± 0.07 pmol/s.

For the compound “RQRQR (Cbz-RQRQR) [KalbTG glutamine-donor 5-mer]”, the “Array signal (log2)” value in the test with KalbTG [3] amounted to 8.84 log2. The “Reaction rate in solution” value with KalbTG [1] (setting [5]) is recorded as 2.06 ± 0.08 pmol/s.

Turning to “RYESK (Cbz-RYESK) [KalbTG lysine (K-tag) 5-mer]”, the “Array signal (log2)” value with KalbTG [2] was 12.65 log2. The “Reaction rate in solution” value with KalbTG [1] (setting [4]) stood at 4.47 ± 0.16 pmol/s.

Consider RYGKS (Cbz-RYGKS) [KalbTG lysine 5-mer], for which the “Array signal (log2)” value with KalbTG [2] is listed as 12.38 log2. Moreover, the “Reaction rate in solution” value in the test with KalbTG [1] (setting [4]) worked out at 2.66 ± 0.11 pmol/s.

On to “RYRQR (Cbz-RYRQR) [KalbTG glutamine-donor 5-mer]”, for which the “Array signal (log2)” value in the test on KalbTG [3] is given as 8.96 log2. In the test on KalbTG [1] (setting [5]), the “Reaction rate in solution” value came out at 3.60 ± 0.12 pmol/s.

As for RYRSK (Cbz-RYRSK) [KalbTG lysine 5-mer], in the test on KalbTG [2], the “Array signal (log2)” value is 12.45 log2. In addition, the “Reaction rate in solution” value with KalbTG [1] (setting [4]) was determined as 3.26 ± 0.10 pmol/s.

Take “RYSKY (Cbz-RYSKY) [KalbTG lysine (amine-donor) 5-mer]”: the “Array signal (log2)” value with KalbTG [2] worked out at 12.75 log2. For the same compound, in the test with KalbTG [1] (setting [4]), the “Reaction rate in solution” value amounted to 3.89 ± 0.04 pmol/s.

With “RYSQR (Cbz-RYSQR) [KalbTG glutamine-donor 5-mer]”, the “Array signal (log2)” value in the test on KalbTG [3] worked out at 8.93 log2. In the test on KalbTG [1] (setting [5]), the “Reaction rate in solution” value is given as 3.22 ± 0.10 pmol/s.

As for YKGRG (Cbz-YKGRG) [KalbTG lysine 5-mer], the “Array signal (log2)” value in the test on KalbTG [2] amounted to 12.25 log2. Further, in the test on KalbTG [1] (setting [4]), the “Reaction rate in solution” value stood at 3.01 ± 0.09 pmol/s.

Take “YKYRQ (Cbz-YKYRQ) [KalbTG glutamine-donor 5-mer, lysine-containing]”: the “Array signal (log2)” value in the test with KalbTG [3] is 8.70 log2. Moreover, in the test with KalbTG [1] (setting [5]), the “Reaction rate in solution” value was 4.00 ± 0.18 pmol/s.
